Source: the supplement of paper PMC10307832

Experiments:
Experiment in all cases: relative viability (nuclei count vs DMSO), 5 days (fraction); higher = more cells survive
NCI-H661 = tested on: NCI-H661
Method in brief: (§1)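 Medians of duplicate plates are given as relative viability. That measure is the nuclei count in treated wells divided by the count in vehicle wells. Counts were taken on 4× images of lung cancer cell lines in 1536-well plates, 5 days after pin-tool dosing the day after seeding with one drug alone or a fixed anchor-drug dose plus five library-drug doses (not always all listed) in √10 steps.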

NCI-H2228 = tested on: NCI-H2228
Method in brief: as §1

RERF-LC-KJ = tested on: RERF-LC-KJ
Method in brief: as §1

NCI-H1755 = tested on: NCI-H1755
Method in brief: as §1

NCI-H1734 = tested on: NCI-H1734
Method in brief: as §1

NCI-H520 = tested on: NCI-H520
Method in brief: as §1

NCI-H1563 = tested on: NCI-H1563
Method in brief: as §1

HCC-827 = tested on: HCC-827
Method in brief: as §1

NCI-H1355 = tested on: NCI-H1355
Method in brief: as §1

LCLC-97TM1 = tested on: LCLC-97TM1
Method in brief: as §1

HCC-15 = tested on: HCC-15
Method in brief: as §1

H3255 = tested on: H3255
Method in brief: as §1

CAL-12T = tested on: CAL-12T
Method in brief: as §1

PC-3 [JPC-3] = tested on: PC-3 [JPC-3]
Method in brief: as §1

LK-2 = tested on: LK-2
Method in brief: as §1

EKVX = tested on: EKVX
Method in brief: as §1

NCI-H2405 = tested on: NCI-H2405
Method in brief: as §1

NCI-H322M = tested on: NCI-H322M
Method in brief: as §1

PC-14 = tested on: PC-14
Method in brief: as §1

NCI-H1975 = tested on: NCI-H1975
Method in brief: as §1

## CCN(CC)CCCCNc1ncc2cc(-c3cc(OC)cc(OC)c3)c(NC(=O)NC(C)(C)C)nc2n1 + Cc1nc(NC(=O)N2CCC[C@H]2C(N)=O)sc1-c1ccnc(C(C)(C)C(F)(F)F)c1 [Alpelisib] (partner 2 µM)
NCI-H661; first compound 0.01 µM
  relative viability: 0.537
NCI-H661; first compound 0.03162 µM
  relative viability: 0.382
NCI-H661; first compound 0.1 µM
  relative viability: 0.657
NCI-H661; first compound 0.3162 µM
  relative viability: 0.858
NCI-H661; first compound 1 µM
  relative viability: 0.535
NCI-H2228; first compound 0.01 µM
  relative viability: 0.796
NCI-H2228; first compound 0.03162 µM
  relative viability: 0.755
NCI-H2228; first compound 0.1 µM
  relative viability: 0.913
NCI-H2228; first compound 0.3162 µM
  relative viability: 0.672
NCI-H2228; first compound 1 µM
  relative viability: 0.469
RERF-LC-KJ; first compound 0.01 µM
  relative viability: 1.08
RERF-LC-KJ; first compound 0.03162 µM
  relative viability: 0.919
RERF-LC-KJ; first compound 0.1 µM
  relative viability: 0.925
RERF-LC-KJ; first compound 0.3162 µM
  relative viability: 0.951
RERF-LC-KJ; first compound 1 µM
  relative viability: 0.826
NCI-H1755; first compound 0.01 µM
  relative viability: 0.983
NCI-H1755; first compound 0.03162 µM
  relative viability: 0.942
NCI-H1755; first compound 0.1 µM
  relative viability: 0.983
NCI-H1755; first compound 0.3162 µM
  relative viability: 1.06
NCI-H1755; first compound 1 µM
  relative viability: 0.927
NCI-H1734; first compound 0.01 µM
  relative viability: 0.728
NCI-H1734; first compound 0.03162 µM
  relative viability: 0.69
NCI-H1734; first compound 0.1 µM
  relative viability: 0.713
NCI-H1734; first compound 0.3162 µM
  relative viability: 0.707
NCI-H1734; first compound 1 µM
  relative viability: 0.708
NCI-H520; first compound 0.01 µM
  relative viability: 1.07
NCI-H520; first compound 0.03162 µM
  relative viability: 0.898
NCI-H520; first compound 0.1 µM
  relative viability: 1.16
NCI-H520; first compound 0.3162 µM
  relative viability: 0.662
NCI-H520; first compound 1 µM
  relative viability: 0.332
NCI-H1563; first compound 0.01 µM
  relative viability: 0.849
NCI-H1563; first compound 0.03162 µM
  relative viability: 0.96
NCI-H1563; first compound 0.1 µM
  relative viability: 0.896
NCI-H1563; first compound 0.3162 µM
  relative viability: 0.771
NCI-H1563; first compound 1 µM
  relative viability: 0.619
HCC-827; first compound 0.01 µM
  relative viability: 0.968
HCC-827; first compound 0.03162 µM
  relative viability: 0.967
HCC-827; first compound 0.1 µM
  relative viability: 1.02
HCC-827; first compound 0.3162 µM
  relative viability: 1.16
HCC-827; first compound 1 µM
  relative viability: 1.02
NCI-H1355; first compound 0.01 µM
  relative viability: 0.776
NCI-H1355; first compound 0.03162 µM
  relative viability: 0.847
NCI-H1355; first compound 0.1 µM
  relative viability: 0.894
NCI-H1355; first compound 0.3162 µM
  relative viability: 0.839
NCI-H1355; first compound 1 µM
  relative viability: 0.785
LCLC-97TM1; first compound 0.03162 µM
  relative viability: 0.265
LCLC-97TM1; first compound 0.1 µM
  relative viability: 0.221
LCLC-97TM1; first compound 0.3162 µM
  relative viability: 0.216
LCLC-97TM1; first compound 1 µM
  relative viability: 0.244
HCC-15; first compound 0.01 µM
  relative viability: 1.03
HCC-15; first compound 0.03162 µM
  relative viability: 0.885
HCC-15; first compound 0.1 µM
  relative viability: 0.947
HCC-15; first compound 0.3162 µM
  relative viability: 0.966
HCC-15; first compound 1 µM
  relative viability: 0.868
H3255; first compound 0.01 µM
  relative viability: 0.788
H3255; first compound 0.03162 µM
  relative viability: 0.71
H3255; first compound 0.1 µM
  relative viability: 0.728
H3255; first compound 0.3162 µM
  relative viability: 0.713
H3255; first compound 1 µM
  relative viability: 0.689
CAL-12T; first compound 0.01 µM
  relative viability: 1.35
CAL-12T; first compound 0.03162 µM
  relative viability: 1.24
CAL-12T; first compound 0.1 µM
  relative viability: 1.14
CAL-12T; first compound 0.3162 µM
  relative viability: 1.49
CAL-12T; first compound 1 µM
  relative viability: 0.902
PC-3 [JPC-3]; first compound 0.01 µM
  relative viability: 1.03
PC-3 [JPC-3]; first compound 0.03162 µM
  relative viability: 1.02
PC-3 [JPC-3]; first compound 0.1 µM
  relative viability: 0.99
PC-3 [JPC-3]; first compound 0.3162 µM
  relative viability: 1.05
PC-3 [JPC-3]; first compound 1 µM
  relative viability: 1.07
LK-2; first compound 0.01 µM
  relative viability: 0.679
LK-2; first compound 0.03162 µM
  relative viability: 0.891
LK-2; first compound 0.1 µM
  relative viability: 0.848
LK-2; first compound 0.3162 µM
  relative viability: 0.6
LK-2; first compound 1 µM
  relative viability: 0.301
EKVX; first compound 0.01 µM
  relative viability: 0.818
EKVX; first compound 0.03162 µM
  relative viability: 0.898
EKVX; first compound 0.1 µM
  relative viability: 0.875
EKVX; first compound 0.3162 µM
  relative viability: 1.04
EKVX; first compound 1 µM
  relative viability: 0.893
NCI-H2405; first compound 0.01 µM
  relative viability: 0.574
NCI-H2405; first compound 0.03162 µM
  relative viability: 0.709
NCI-H2405; first compound 0.1 µM
  relative viability: 0.814
NCI-H2405; first compound 0.3162 µM
  relative viability: 0.862
NCI-H2405; first compound 1 µM
  relative viability: 0.72
NCI-H322M; first compound 0.01 µM
  relative viability: 0.822
NCI-H322M; first compound 0.03162 µM
  relative viability: 0.782
NCI-H322M; first compound 0.1 µM
  relative viability: 0.77
NCI-H322M; first compound 0.3162 µM
  relative viability: 1.02
NCI-H322M; first compound 1 µM
  relative viability: 0.75
PC-14; first compound 0.01 µM
  relative viability: 1.02
PC-14; first compound 0.03162 µM
  relative viability: 1.08
PC-14; first compound 0.1 µM
  relative viability: 0.879
PC-14; first compound 0.3162 µM
  relative viability: 1.16
PC-14; first compound 1 µM
  relative viability: 0.943
NCI-H1975; first compound 0.01 µM
  relative viability: 0.699
NCI-H1975; first compound 0.03162 µM
  relative viability: 0.691
NCI-H1975; first compound 0.1 µM
  relative viability: 0.707
NCI-H1975; first compound 0.3162 µM
  relative viability: 0.787
NCI-H1975; first compound 1 µM
  relative viability: 0.451
